From PubChem BioAssay AID1963837 (Molecular Pharmacology Branch, DTP, NCI, 2024)

Test system: 843126-344-R-J1-PDC complex spheroid viability
Experiment: Anticancer human tumor 843126-344-R-J1-PDC patient-derived melanoma cell line growth inhibition [POLQ]
Conditions: for IC50: curve of first compound; for viability, T/C: stronger effect = lower value; active means viability on the fitted dose curve at most 10% of control; inactive means the rest
How it was run: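 Complex spheroid viability model combining PDC tumour cells with endothelial (HUVEC) and MSC stromal cells. Novobiocin, ART-558 or RP6685 were tested singly and in combination with standard and investigational anticancer drugs. Each was titrated in half-log steps from near clinical Cmax, or from 10 microM where Cmax was unknown.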

[1] = second compound 0.0316 µM, first compound 0.0316 µM
[2] = second compound 0.0316 µM, first compound 0.1 µM
[3] = second compound 0.0316 µM, first compound 0.316 µM
[4] = second compound 0.0316 µM, first compound 1 µM
[5] = second compound 0.0316 µM, first compound 3.16 µM
[6] = second compound 0.0316 µM, first compound 10 µM
[7] = second compound 0.1 µM, first compound 0.0316 µM
[8] = second compound 0.1 µM, first compound 0.1 µM
[9] = second compound 0.1 µM, first compound 0.316 µM
[10] = second compound 0.1 µM, first compound 1 µM
[11] = second compound 0.1 µM, first compound 3.16 µM
[12] = second compound 0.1 µM, first compound 10 µM
[13] = second compound 0.316 µM, first compound 0.0316 µM
[14] = second compound 0.316 µM, first compound 0.1 µM
[15] = second compound 0.316 µM, first compound 0.316 µM
[16] = second compound 0.316 µM, first compound 1 µM
[17] = second compound 0.316 µM, first compound 3.16 µM
[18] = second compound 0.316 µM, first compound 10 µM
[19] = second compound 1 µM, first compound 0.0316 µM
[20] = second compound 1 µM, first compound 0.1 µM
[21] = second compound 1 µM, first compound 0.316 µM
[22] = second compound 1 µM, first compound 1 µM
[23] = second compound 1 µM, first compound 3.16 µM
[24] = second compound 1 µM, first compound 10 µM
[25] = second compound 3.16 µM, first compound 0.0316 µM
[26] = second compound 3.16 µM, first compound 0.1 µM
[27] = second compound 3.16 µM, first compound 0.316 µM
[28] = second compound 3.16 µM, first compound 1 µM
[29] = second compound 3.16 µM, first compound 3.16 µM
[30] = second compound 3.16 µM, first compound 10 µM
[31] = second compound 10 µM, first compound 0.0316 µM
[32] = second compound 10 µM, first compound 0.1 µM
[33] = second compound 10 µM, first compound 0.316 µM
[34] = second compound 10 µM, first compound 1 µM
[35] = second compound 10 µM, first compound 3.16 µM
[36] = second compound 10 µM, first compound 10 µM
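Wherever viability, T/C is given: spheroids exposed to drugs for seven days before readout.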

COc1cccc2c1C(=O)c1c(O)c3c(c(O)c1C2=O)CC(O)(C(=O)CO)CC3OC1CC(N)C(O)C(C)O1 (stereo unspecified) + Nc1ccc(C#CCN(C(=O)Cc2ncc(C(F)(F)F)cc2C(F)(F)F)c2ccc(F)cc2)nn1
393 nM: IC50 (second compound 0.0316 µM)
inactive: viability, T/C [1] 84.7% | viability, T/C [2] 84.8% | viability, T/C [3] 57.3% | viability, T/C [4] 16.1% | viability, T/C [7] 94.7% | viability, T/C [8] 84.4% | viability, T/C [9] 61.3% | viability, T/C [10] 15.7% | viability, T/C [13] 77.9% | viability, T/C [14] 94.6% | viability, T/C [15] 47.5% | viability, T/C [19] 78.5% | viability, T/C [20] 79% | viability, T/C [21] 52.6% | viability, T/C [22] 14.2% | viability, T/C [25] 82.4% | viability, T/C [26] 76.3% | viability, T/C [27] 47.8% | viability, T/C [28] 13.9% | viability, T/C [31] 80.6% | viability, T/C [32] 73.4% | viability, T/C [33] 48.5% | viability, T/C [34] 10.4%
active: viability, T/C [5] 3.95% | viability, T/C [6] 2.82% | viability, T/C [11] 3.48% | viability, T/C [12] 2.63% | viability, T/C [16] 12.2% | viability, T/C [17] 2.99% | viability, T/C [18] 2.71% | viability, T/C [23] 3.21% | viability, T/C [24] 2.34% | viability, T/C [29] 3.21% | viability, T/C [30] 2.76% | viability, T/C [35] 2.78% | viability, T/C [36] 2.29%
288 nM: IC50 (second compound 10 µM)
412 nM: IC50 (second compound 0.1 µM)
290 nM: IC50 (second compound 3.16 µM)
348 nM: IC50 (second compound 1 µM)
293 nM: IC50 (second compound 0.316 µM)

C#Cc1c(F)ccc2cc(O)cc(-c3ncc4c(N5CC6CCC(C5)N6)nc(OCC56CCCN5CC(F)C6)nc4c3F)c12 (stereo unspecified) + Nc1ccc(C#CCN(C(=O)Cc2ncc(C(F)(F)F)cc2C(F)(F)F)c2ccc(F)cc2)nn1
> 10000 nM: IC50 (second compound 0.0316 µM) | IC50 (second compound 0.1 µM) | IC50 (second compound 0.316 µM) | IC50 (second compound 1 µM) | IC50 (second compound 3.16 µM) | IC50 (second compound 10 µM)
inactive: viability, T/C [1] 87.4% | viability, T/C [2] 95.1% | viability, T/C [3] 99.8% | viability, T/C [4] 88.7% | viability, T/C [5] 121% | viability, T/C [6] 76.5% | viability, T/C [7] 106% | viability, T/C [8] 110% | viability, T/C [9] 96.7% | viability, T/C [10] 108% | viability, T/C [11] 103% | viability, T/C [12] 84.5% | viability, T/C [13] 100% | viability, T/C [14] 91.4% | viability, T/C [15] 84.5% | viability, T/C [16] 110% | viability, T/C [17] 95.1% | viability, T/C [18] 90.8% | viability, T/C [19] 107% | viability, T/C [20] 91.2% | viability, T/C [21] 91.2% | viability, T/C [22] 117% | viability, T/C [23] 109% | viability, T/C [24] 88.8% | viability, T/C [25] 89.1% | viability, T/C [26] 84.2% | viability, T/C [27] 108% | viability, T/C [28] 94.5% | viability, T/C [29] 97.6% | viability, T/C [30] 82.6% | viability, T/C [31] 95.3% | viability, T/C [32] 83.4% | viability, T/C [33] 86.5% | viability, T/C [34] 83.6% | viability, T/C [35] 85.8% | viability, T/C [36] 79.4%

CC1COCCN1c1cc(C2(O)CC3CCC(C2)O3)c2cnn(-c3ccn[nH]3)c2n1 (stereo unspecified) + Cc1cccc(N(C)C(=O)C2C(O)CCN2c2nc(C)cc(C(F)(F)F)c2C#N)c1
640 nM: IC50 (second compound 3.16 µM)
763 nM: IC50 (second compound 10 µM)
580 nM: IC50 (second compound 0.316 µM)
487 nM: IC50 (second compound 0.0316 µM)
385 nM: IC50 (second compound 1 µM)
470 nM: IC50 (second compound 0.1 µM)
inactive: viability, T/C [1] 95.7% | viability, T/C [2] 78.6% | viability, T/C [3] 48.2% | viability, T/C [4] 44.8% | viability, T/C [5] 31% | viability, T/C [6] 20.7% | viability, T/C [7] 84.6% | viability, T/C [8] 66% | viability, T/C [9] 58.5% | viability, T/C [10] 40.1% | viability, T/C [11] 28.5% | viability, T/C [12] 22.2% | viability, T/C [13] 85.6% | viability, T/C [14] 74.9% | viability, T/C [15] 51.3% | viability, T/C [16] 45.2% | viability, T/C [17] 34% | viability, T/C [18] 19.2% | viability, T/C [19] 99.3% | viability, T/C [20] 62.8% | viability, T/C [21] 56.9% | viability, T/C [22] 40.8% | viability, T/C [23] 32.7% | viability, T/C [24] 21% | viability, T/C [25] 91.2% | viability, T/C [26] 80.5% | viability, T/C [27] 51.5% | viability, T/C [28] 47.5% | viability, T/C [29] 33.2% | viability, T/C [30] 20.6% | viability, T/C [31] 87.7% | viability, T/C [32] 82.8% | viability, T/C [33] 63.8% | viability, T/C [34] 45.2% | viability, T/C [35] 29.3% | viability, T/C [36] 17.7%
